The NIST ThermoML archive (doi:10.1016/j.fluid.2012.06.031)
± gives the expanded uncertainty stated by the source.

Assays:
[1] = excess molar enthalpy (molar enthalpy of mixing); xn = mol fraction of the nth substance listed; conditions: 298.15 K, 101 kPa, Liquid, solution calorimetry
[2] = refractive index (Na D-line) (dimensionless); xn = mol fraction of the nth substance listed; conditions: 298.15 K, 101 kPa, Liquid, Standard Abbe refractometry
[3] = xn = mol fraction of the nth substance listed; conditions: 298.15 K, 101 kPa, Liquid, Pycnometric method
[4] = 298.15 K; 101.33 kPa; Liquid; Pycnometric method
[5] = refractive index (Na D-line) (dimensionless); conditions: 298.15 K; 101.33 kPa; Liquid; Standard Abbe refractometry

CC(C)CC(C)(C)C [2,2,4-trimethylpentane] + CCCO
excess molar enthalpy ([1]; x2 = 0.0516): 0.0974 ± 0.001 kcal/mol | excess molar enthalpy ([1]; x2 = 0.1): 0.1255 ± 0.00117 kcal/mol | excess molar enthalpy ([1]; x2 = 0.15): 0.1338 ± 0.00122 kcal/mol | excess molar enthalpy ([1]; x2 = 0.2001): 0.1457 ± 0.00131 kcal/mol | excess molar enthalpy ([1]; x2 = 0.3001): 0.1564 ± 0.00139 kcal/mol | excess molar enthalpy ([1]; x2 = 0.4001): 0.1561 ± 0.00139 kcal/mol | excess molar enthalpy ([1]; x2 = 0.5002): 0.144 ± 0.00129 kcal/mol | excess molar enthalpy ([1]; x2 = 0.6001): 0.1255 ± 0.00117 kcal/mol | excess molar enthalpy ([1]; x2 = 0.7048): 0.0969 ± 0.00098 kcal/mol | excess molar enthalpy ([1]; x2 = 0.8): 0.0709 ± 0.000837 kcal/mol | excess molar enthalpy ([1]; x2 = 0.85): 0.0561 ± 0.000765 kcal/mol | excess molar enthalpy ([1]; x2 = 0.8998): 0.0388 ± 0.000669 kcal/mol | excess molar enthalpy ([1]; x2 = 0.9499): 0.0204 ± 0.000598 kcal/mol | refractive index ([2]; x2 = 0.0502): 1.3885 ± 0.00045 | refractive index ([2]; x2 = 0.1002): 1.38816 ± 0.00045 | refractive index ([2]; x2 = 0.1504): 1.38785 ± 0.00045 | refractive index ([2]; x2 = 0.1999): 1.38759 ± 0.00044 | refractive index ([2]; x2 = 0.3): 1.38712 ± 0.00044 | refractive index ([2]; x2 = 0.3999): 1.38669 ± 0.00043 | refractive index ([2]; x2 = 0.5): 1.38627 ± 0.00043 | refractive index ([2]; x2 = 0.6001): 1.3858 ± 0.00042 | refractive index ([2]; x2 = 0.7): 1.38526 ± 0.00042 | refractive index ([2]; x2 = 0.7999): 1.38462 ± 0.00042 | refractive index ([2]; x2 = 0.85): 1.38426 ± 0.00042 | refractive index ([2]; x2 = 0.9): 1.38387 ± 0.00041 | refractive index ([2]; x2 = 0.9501): 1.38345 ± 0.00041 | mass density ([3]; x2 = 0.0502): 689.82 ± 0.56 kg/m3 | mass density ([3]; x2 = 0.1002): 692.19 ± 0.56 kg/m3 | mass density ([3]; x2 = 0.1504): 694.9 ± 0.56 kg/m3 | mass density ([3]; x2 = 0.1999): 697.87 ± 0.56 kg/m3 | mass density ([3]; x2 = 0.3): 704.65 ± 0.56 kg/m3 | mass density ([3]; x2 = 0.3999): 712.46 ± 0.56 kg/m3 | mass density ([3]; x2 = 0.5): 721.44 ± 0.56 kg/m3 | mass density ([3]; x2 = 0.6001): 731.85 ± 0.57 kg/m3 | mass density ([3]; x2 = 0.7): 744.14 ± 0.58 kg/m3 | mass density ([3]; x2 = 0.7999): 758.95 ± 0.58 kg/m3 | mass density ([3]; x2 = 0.85): 767.56 ± 0.59 kg/m3 | mass density ([3]; x2 = 0.9): 777.1 ± 0.6 kg/m3 | mass density ([3]; x2 = 0.9501): 787.71 ± 0.6 kg/m3

CCCCCO [pentan-1-ol]
mass density [4]: 810.8 ± 0.66 kg/m3 | refractive index [5]: 1.4078 ± 0.0007

CC(C)CC(C)(C)C [2,2,4-trimethylpentane]
mass density [4]: 687.9 ± 0.56 kg/m3 | refractive index [5]: 1.3889 ± 0.0007

CCCO [propan-1-ol]
mass density [4]: 799.6 ± 0.61 kg/m3 | refractive index [5]: 1.3832 ± 0.0007

CC(C)CC(C)(C)C [2,2,4-trimethylpentane] + CCCCO
excess molar enthalpy ([1]; x2 = 0.05): 0.0947 ± 0.00098 kcal/mol | excess molar enthalpy ([1]; x2 = 0.1): 0.1201 ± 0.00115 kcal/mol | excess molar enthalpy ([1]; x2 = 0.1502): 0.1362 ± 0.00124 kcal/mol | excess molar enthalpy ([1]; x2 = 0.2): 0.1404 ± 0.00127 kcal/mol | excess molar enthalpy ([1]; x2 = 0.2995): 0.1489 ± 0.00134 kcal/mol | excess molar enthalpy ([1]; x2 = 0.4): 0.1503 ± 0.00134 kcal/mol | excess molar enthalpy ([1]; x2 = 0.5001): 0.1419 ± 0.00129 kcal/mol | excess molar enthalpy ([1]; x2 = 0.6002): 0.1233 ± 0.00115 kcal/mol | excess molar enthalpy ([1]; x2 = 0.7): 0.0968 ± 0.00098 kcal/mol | excess molar enthalpy ([1]; x2 = 0.8): 0.0686 ± 0.000837 kcal/mol | excess molar enthalpy ([1]; x2 = 0.8499): 0.0532 ± 0.000741 kcal/mol | excess molar enthalpy ([1]; x2 = 0.9): 0.0359 ± 0.000669 kcal/mol | excess molar enthalpy ([1]; x2 = 0.9499): 0.0188 ± 0.000598 kcal/mol | refractive index ([2]; x2 = 0.0501): 1.38897 ± 0.00046 | refractive index ([2]; x2 = 0.1001): 1.38909 ± 0.00045 | refractive index ([2]; x2 = 0.1501): 1.38925 ± 0.00045 | refractive index ([2]; x2 = 0.2): 1.38946 ± 0.00045 | refractive index ([2]; x2 = 0.3001): 1.38999 ± 0.00044 | refractive index ([2]; x2 = 0.3999): 1.39067 ± 0.00044 | refractive index ([2]; x2 = 0.5): 1.39149 ± 0.00043 | refractive index ([2]; x2 = 0.5999): 1.39244 ± 0.00043 | refractive index ([2]; x2 = 0.6999): 1.3935 ± 0.00042 | refractive index ([2]; x2 = 0.8): 1.39466 ± 0.00042 | refractive index ([2]; x2 = 0.85): 1.39527 ± 0.00042 | refractive index ([2]; x2 = 0.9): 1.3959 ± 0.00042 | refractive index ([2]; x2 = 0.95): 1.39654 ± 0.00042 | mass density ([3]; x2 = 0.0501): 690.95 ± 0.56 kg/m3 | mass density ([3]; x2 = 0.1001): 694.28 ± 0.56 kg/m3 | mass density ([3]; x2 = 0.1501): 697.81 ± 0.56 kg/m3 | mass density ([3]; x2 = 0.2): 701.56 ± 0.56 kg/m3 | mass density ([3]; x2 = 0.3001): 709.77 ± 0.57 kg/m3 | mass density ([3]; x2 = 0.3999): 718.98 ± 0.57 kg/m3 | mass density ([3]; x2 = 0.5): 729.4 ± 0.57 kg/m3 | mass density ([3]; x2 = 0.5999): 741.16 ± 0.58 kg/m3 | mass density ([3]; x2 = 0.6999): 754.51 ± 0.59 kg/m3 | mass density ([3]; x2 = 0.8): 769.68 ± 0.59 kg/m3 | mass density ([3]; x2 = 0.85): 778.03 ± 0.6 kg/m3 | mass density ([3]; x2 = 0.9): 786.94 ± 0.6 kg/m3 | mass density ([3]; x2 = 0.95): 796.46 ± 0.61 kg/m3

CCCCO [butan-1-ol]
mass density [4]: 805.8 ± 0.62 kg/m3 | refractive index [5]: 1.3974 ± 0.0007

CCCCCO [pentan-1-ol] + CC(C)CC(C)(C)C
excess molar enthalpy ([1]; x1 = 0.05): 0.09 ± 0.000956 kcal/mol | excess molar enthalpy ([1]; x1 = 0.0998): 0.1135 ± 0.0011 kcal/mol | excess molar enthalpy ([1]; x1 = 0.15): 0.127 ± 0.00117 kcal/mol | excess molar enthalpy ([1]; x1 = 0.1996): 0.1326 ± 0.00122 kcal/mol | excess molar enthalpy ([1]; x1 = 0.2997): 0.1439 ± 0.00129 kcal/mol | excess molar enthalpy ([1]; x1 = 0.3999): 0.1413 ± 0.00129 kcal/mol | excess molar enthalpy ([1]; x1 = 0.4998): 0.1317 ± 0.00122 kcal/mol | excess molar enthalpy ([1]; x1 = 0.5999): 0.109 ± 0.00108 kcal/mol | excess molar enthalpy ([1]; x1 = 0.7): 0.091 ± 0.000956 kcal/mol | excess molar enthalpy ([1]; x1 = 0.8): 0.063 ± 0.000789 kcal/mol | excess molar enthalpy ([1]; x1 = 0.85): 0.0472 ± 0.000717 kcal/mol | excess molar enthalpy ([1]; x1 = 0.9): 0.0321 ± 0.000645 kcal/mol | excess molar enthalpy ([1]; x1 = 0.95): 0.015 ± 0.000574 kcal/mol | refractive index ([2]; x1 = 0.0501): 1.38936 ± 0.00046 | refractive index ([2]; x1 = 0.1): 1.38993 ± 0.00046 | refractive index ([2]; x1 = 0.1499): 1.39059 ± 0.00046 | refractive index ([2]; x1 = 0.2017): 1.39135 ± 0.00046 | refractive index ([2]; x1 = 0.3001): 1.39297 ± 0.00046 | refractive index ([2]; x1 = 0.4): 1.39478 ± 0.00046 | refractive index ([2]; x1 = 0.5001): 1.3967 ± 0.00046 | refractive index ([2]; x1 = 0.6001): 1.3987 ± 0.00046 | refractive index ([2]; x1 = 0.7): 1.40077 ± 0.00046 | refractive index ([2]; x1 = 0.7999): 1.40293 ± 0.00046 | refractive index ([2]; x1 = 0.85): 1.40407 ± 0.00046 | refractive index ([2]; x1 = 0.9): 1.40525 ± 0.00046 | refractive index ([2]; x1 = 0.95): 1.40649 ± 0.00046 | mass density ([3]; x1 = 0.0501): 691.14 ± 0.56 kg/m3 | mass density ([3]; x1 = 0.1): 695.2 ± 0.57 kg/m3 | mass density ([3]; x1 = 0.1499): 699.5 ± 0.57 kg/m3 | mass density ([3]; x1 = 0.2017): 704.19 ± 0.57 kg/m3 | mass density ([3]; x1 = 0.3001): 713.84 ± 0.58 kg/m3 | mass density ([3]; x1 = 0.4): 724.6 ± 0.59 kg/m3 | mass density ([3]; x1 = 0.5001): 736.36 ± 0.6 kg/m3 | mass density ([3]; x1 = 0.6001): 749.12 ± 0.61 kg/m3 | mass density ([3]; x1 = 0.7): 762.91 ± 0.62 kg/m3 | mass density ([3]; x1 = 0.7999): 777.72 ± 0.63 kg/m3 | mass density ([3]; x1 = 0.85): 785.54 ± 0.64 kg/m3 | mass density ([3]; x1 = 0.9): 793.63 ± 0.65 kg/m3 | mass density ([3]; x1 = 0.95): 801.98 ± 0.65 kg/m3
